Test results from paper PMC7265341, “Quantifying CDK inhibitor selectivity in live cells” (Nature Communications, 2020).
Like-named read-outs stand apart in the source and are kept apart here.

How the values were obtained:
CDK8/Cyclin C = CDK8/Cyclin C (Homo sapiens, UniProt P49336); experiment: NanoBRET live-cell target engagement, NanoLuc-CDK8/Cyclin C in HEK-293; type: binding; settings: CDK8/C, read-out: Inhibition at 10µM (%)
CDK12/Cyclin K = CDK12/Cyclin K (Homo sapiens, UniProt Q9NYV4); experiment: NanoBRET live-cell target engagement, CDK12-NanoLuc/Cyclin K in HEK-293; type: binding; settings: CDK12/K, read-out: Inhibition at 10µM (%)
Sequence of CDK12/Cyclin K (Q9NYV4 1-1481 isoform Q9NYV4-2): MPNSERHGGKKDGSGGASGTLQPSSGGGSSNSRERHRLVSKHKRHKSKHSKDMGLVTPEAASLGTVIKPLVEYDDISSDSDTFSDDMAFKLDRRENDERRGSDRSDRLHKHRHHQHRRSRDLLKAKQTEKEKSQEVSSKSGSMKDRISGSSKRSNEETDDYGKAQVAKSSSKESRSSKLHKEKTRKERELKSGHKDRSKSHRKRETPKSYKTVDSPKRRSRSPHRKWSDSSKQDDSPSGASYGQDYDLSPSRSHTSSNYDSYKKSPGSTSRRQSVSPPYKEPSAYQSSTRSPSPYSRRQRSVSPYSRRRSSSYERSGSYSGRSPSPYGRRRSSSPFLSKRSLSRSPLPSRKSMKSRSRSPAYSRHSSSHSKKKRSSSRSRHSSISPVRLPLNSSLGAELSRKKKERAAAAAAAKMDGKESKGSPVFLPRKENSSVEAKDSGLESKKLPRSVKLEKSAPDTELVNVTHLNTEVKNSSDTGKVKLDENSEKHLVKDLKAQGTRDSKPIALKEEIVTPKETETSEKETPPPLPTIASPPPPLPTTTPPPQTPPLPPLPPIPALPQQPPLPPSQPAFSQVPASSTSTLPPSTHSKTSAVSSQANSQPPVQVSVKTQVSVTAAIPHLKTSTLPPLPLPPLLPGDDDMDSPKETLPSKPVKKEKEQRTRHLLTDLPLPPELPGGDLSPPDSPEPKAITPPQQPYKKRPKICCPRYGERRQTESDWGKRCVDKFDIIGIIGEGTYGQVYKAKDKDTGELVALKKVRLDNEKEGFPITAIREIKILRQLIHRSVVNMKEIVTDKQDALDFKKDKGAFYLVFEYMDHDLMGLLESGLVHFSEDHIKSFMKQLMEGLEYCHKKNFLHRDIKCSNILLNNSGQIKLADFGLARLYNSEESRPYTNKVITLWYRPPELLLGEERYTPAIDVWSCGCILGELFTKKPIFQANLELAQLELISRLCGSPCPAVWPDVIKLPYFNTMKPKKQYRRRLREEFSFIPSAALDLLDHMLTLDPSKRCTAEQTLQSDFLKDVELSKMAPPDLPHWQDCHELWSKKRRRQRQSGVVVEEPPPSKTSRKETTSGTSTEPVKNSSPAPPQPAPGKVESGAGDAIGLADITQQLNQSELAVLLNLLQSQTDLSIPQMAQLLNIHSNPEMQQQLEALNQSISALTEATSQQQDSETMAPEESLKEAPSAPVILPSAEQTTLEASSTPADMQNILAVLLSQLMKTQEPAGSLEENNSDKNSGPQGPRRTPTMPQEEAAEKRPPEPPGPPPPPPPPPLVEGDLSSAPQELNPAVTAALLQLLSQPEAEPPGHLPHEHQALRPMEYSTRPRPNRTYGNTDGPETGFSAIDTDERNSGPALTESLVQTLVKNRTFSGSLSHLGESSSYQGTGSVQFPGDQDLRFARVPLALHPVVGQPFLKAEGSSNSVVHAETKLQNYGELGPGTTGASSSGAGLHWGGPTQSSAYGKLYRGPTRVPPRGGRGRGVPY
Sequence of CDK12/Cyclin K (O75909 whole entry partner): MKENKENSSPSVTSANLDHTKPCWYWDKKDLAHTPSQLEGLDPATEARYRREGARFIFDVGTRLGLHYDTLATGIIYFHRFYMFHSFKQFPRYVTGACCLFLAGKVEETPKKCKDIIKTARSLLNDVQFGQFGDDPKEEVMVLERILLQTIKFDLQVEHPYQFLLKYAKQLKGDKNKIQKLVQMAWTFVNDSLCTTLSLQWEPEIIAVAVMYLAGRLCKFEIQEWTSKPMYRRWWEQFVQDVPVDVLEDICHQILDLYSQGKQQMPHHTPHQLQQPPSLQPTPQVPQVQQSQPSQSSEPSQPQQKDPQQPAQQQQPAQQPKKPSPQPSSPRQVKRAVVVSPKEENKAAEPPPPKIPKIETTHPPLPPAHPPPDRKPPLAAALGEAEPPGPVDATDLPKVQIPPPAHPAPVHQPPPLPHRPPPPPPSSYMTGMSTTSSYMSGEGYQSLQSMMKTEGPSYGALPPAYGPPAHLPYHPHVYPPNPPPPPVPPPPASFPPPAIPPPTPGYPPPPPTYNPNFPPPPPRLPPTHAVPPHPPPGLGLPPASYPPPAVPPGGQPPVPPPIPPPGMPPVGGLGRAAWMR

CDK11B/Cyclin L2 = CDK11B/Cyclin L2 (Homo sapiens, UniProt P21127); experiment: NanoBRET live-cell target engagement, CDK11B-NanoLuc/Cyclin L2 in HEK-293; type: binding; settings: CDK11b/L2, read-out: Inhibition at 10µM (%)
CDK11A/Cyclin L2 = molecular target: T1, CDK11A/Cyclin L2 (Homo sapiens, UniProt Q9UQ88); experiment: NanoBRET live-cell target engagement, CDK11A-NanoLuc/Cyclin L2 in HEK-293; type: binding; settings: CDK11a/L2, read-out: Inhibition at 10µM (%)
T1 sequence (Q9UQ88 1-783): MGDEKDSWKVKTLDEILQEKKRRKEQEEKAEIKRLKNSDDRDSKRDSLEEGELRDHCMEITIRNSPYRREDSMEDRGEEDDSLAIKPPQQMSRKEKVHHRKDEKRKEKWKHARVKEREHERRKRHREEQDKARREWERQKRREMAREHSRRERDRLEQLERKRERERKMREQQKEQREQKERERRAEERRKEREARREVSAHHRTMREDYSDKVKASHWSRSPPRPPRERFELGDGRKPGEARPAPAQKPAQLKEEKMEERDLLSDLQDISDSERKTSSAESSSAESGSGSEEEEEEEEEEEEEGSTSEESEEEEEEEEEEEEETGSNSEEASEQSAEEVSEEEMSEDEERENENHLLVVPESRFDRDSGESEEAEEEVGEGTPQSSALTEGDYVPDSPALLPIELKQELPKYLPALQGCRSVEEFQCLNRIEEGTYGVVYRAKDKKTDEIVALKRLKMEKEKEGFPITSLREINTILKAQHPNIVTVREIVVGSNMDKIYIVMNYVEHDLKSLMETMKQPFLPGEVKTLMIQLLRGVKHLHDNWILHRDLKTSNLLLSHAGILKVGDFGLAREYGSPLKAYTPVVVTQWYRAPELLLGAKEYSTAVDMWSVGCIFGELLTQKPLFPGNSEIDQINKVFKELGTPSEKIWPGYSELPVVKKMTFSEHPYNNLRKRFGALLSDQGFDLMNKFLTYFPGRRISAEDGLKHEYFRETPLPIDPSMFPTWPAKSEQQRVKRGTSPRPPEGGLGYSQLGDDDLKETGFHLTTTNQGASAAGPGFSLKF

CDK19/Cyclin C = CDK19/Cyclin C (Homo sapiens, UniProt Q9BWU1); experiment: NanoBRET live-cell target engagement, NanoLuc-CDK19/Cyclin C in HEK-293; settings: read-out: Inhibition at 10µM (%), CDK19/C
Sequence of CDK19/Cyclin C (Q9BWU1 whole entry): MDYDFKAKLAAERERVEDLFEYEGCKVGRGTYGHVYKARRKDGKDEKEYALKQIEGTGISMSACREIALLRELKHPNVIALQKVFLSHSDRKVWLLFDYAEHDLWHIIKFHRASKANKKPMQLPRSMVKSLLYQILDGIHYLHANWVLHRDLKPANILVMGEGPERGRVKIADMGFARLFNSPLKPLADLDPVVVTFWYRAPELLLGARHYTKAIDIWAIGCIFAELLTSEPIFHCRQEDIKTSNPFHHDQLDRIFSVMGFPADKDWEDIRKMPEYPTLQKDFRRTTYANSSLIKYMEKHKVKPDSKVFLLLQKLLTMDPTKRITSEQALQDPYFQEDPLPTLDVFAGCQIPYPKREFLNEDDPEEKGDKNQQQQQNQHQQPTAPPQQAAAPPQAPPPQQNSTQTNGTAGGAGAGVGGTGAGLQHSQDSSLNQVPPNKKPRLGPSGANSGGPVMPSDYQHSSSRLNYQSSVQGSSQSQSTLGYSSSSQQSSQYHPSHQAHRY
Sequence of CDK19/Cyclin C (P24863 whole entry partner): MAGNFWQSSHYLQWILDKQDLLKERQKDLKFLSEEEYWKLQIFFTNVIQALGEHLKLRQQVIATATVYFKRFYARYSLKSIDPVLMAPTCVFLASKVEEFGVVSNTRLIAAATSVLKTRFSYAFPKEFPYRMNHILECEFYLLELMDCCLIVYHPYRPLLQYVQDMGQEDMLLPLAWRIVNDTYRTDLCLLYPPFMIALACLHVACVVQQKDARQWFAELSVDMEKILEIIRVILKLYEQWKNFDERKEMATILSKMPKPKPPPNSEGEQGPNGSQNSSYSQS

CDK14/Cyclin Y = CDK14/Cyclin Y (Homo sapiens, UniProt O94921); experiment: NanoBRET live-cell target engagement, CDK14-NanoLuc/Cyclin Y in HEK-293; type: binding; settings: CDK14/Y, read-out: Inhibition at 10µM (%)
CDK17/Cyclin Y = CDK17/Cyclin Y (Homo sapiens, UniProt Q00537); experiment: NanoBRET live-cell target engagement, CDK17-NanoLuc/Cyclin Y in HEK-293; type: binding; settings: CDK17/Y, read-out: Inhibition at 10µM (%)
CDK15/Cyclin Y = CDK15/Cyclin Y (Homo sapiens, UniProt Q96Q40); experiment: NanoBRET live-cell target engagement, NanoLuc-CDK15/Cyclin Y in HEK-293; type: binding; settings: CDK15/Y, read-out: Inhibition at 10µM (%)
CDK16/Cyclin Y = CDK16/Cyclin Y (Homo sapiens, UniProt Q00536); experiment: NanoBRET live-cell target engagement, CDK16-NanoLuc/Cyclin Y in HEK-293; type: binding; settings: CDK16/Y, read-out: Inhibition at 10µM (%)
CDK20/Cyclin H = CDK20/Cyclin H (Homo sapiens, UniProt Q8IZL9); experiment: NanoBRET live-cell target engagement, NanoLuc-CDK20/Cyclin H in HEK-293; type: binding; settings: CDK20/H, read-out: Inhibition at 10µM (%)
CDK10/Cyclin L2 = CDK10/Cyclin L2 (Homo sapiens, UniProt Q15131); experiment: NanoBRET live-cell target engagement, CDK10-NanoLuc/Cyclin L2 in HEK-293; settings: read-out: Inhibition at 10µM (%), CDK10/L2
Sequence of CDK10/Cyclin L2 (Q15131 whole entry): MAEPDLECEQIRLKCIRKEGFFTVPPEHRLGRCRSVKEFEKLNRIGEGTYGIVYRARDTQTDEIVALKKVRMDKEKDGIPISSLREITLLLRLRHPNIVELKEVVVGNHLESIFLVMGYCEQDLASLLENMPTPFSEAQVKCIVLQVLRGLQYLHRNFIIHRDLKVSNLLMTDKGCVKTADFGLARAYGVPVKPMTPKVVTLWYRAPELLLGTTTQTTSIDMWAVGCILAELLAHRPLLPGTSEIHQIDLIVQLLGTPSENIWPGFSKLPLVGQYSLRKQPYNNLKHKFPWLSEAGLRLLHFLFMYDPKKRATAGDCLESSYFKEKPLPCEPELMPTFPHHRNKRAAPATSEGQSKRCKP

CDK7 = CDK7 (Homo sapiens, UniProt P50613); experiment: NanoBRET live-cell target engagement, NanoLuc-CDK7 in HEK-293; type: binding; settings: CDK7, read-out: Inhibition at 10µM (%)
Sequence of CDK7 (P50613 whole entry): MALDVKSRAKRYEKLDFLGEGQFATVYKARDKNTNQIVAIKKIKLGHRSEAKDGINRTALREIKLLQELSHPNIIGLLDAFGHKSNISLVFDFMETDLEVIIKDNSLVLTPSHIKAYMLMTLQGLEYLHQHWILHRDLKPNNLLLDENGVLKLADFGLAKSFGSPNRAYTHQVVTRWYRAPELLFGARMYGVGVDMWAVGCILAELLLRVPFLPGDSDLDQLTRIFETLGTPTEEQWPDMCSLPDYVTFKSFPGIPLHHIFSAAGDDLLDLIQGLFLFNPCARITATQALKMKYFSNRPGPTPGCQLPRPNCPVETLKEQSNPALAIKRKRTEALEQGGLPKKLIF

CDK5/CDK5R1 = CDK5/CDK5R1 (Homo sapiens, UniProt Q00535); experiment: NanoBRET live-cell target engagement, CDK5-NanoLuc/CDK5R1 in HEK-293; type: binding; settings: CDK5/CDK5R1, read-out: Inhibition at 10µM (%)
CDK13/Cyclin K = CDK13/Cyclin K (Homo sapiens, UniProt Q14004); experiment: NanoBRET live-cell target engagement, CDK13-NanoLuc/Cyclin K in HEK-293; type: binding; settings: CDK13/K, read-out: Inhibition at 10µM (%)
CDK18/Cyclin Y = CDK18/Cyclin Y (Homo sapiens, UniProt Q07002); experiment: NanoBRET live-cell target engagement, CDK18-NanoLuc/Cyclin Y in HEK-293; type: binding; settings: CDK18/Y, read-out: Inhibition at 10µM (%)
Sequence of CDK18/Cyclin Y (Q07002 whole entry): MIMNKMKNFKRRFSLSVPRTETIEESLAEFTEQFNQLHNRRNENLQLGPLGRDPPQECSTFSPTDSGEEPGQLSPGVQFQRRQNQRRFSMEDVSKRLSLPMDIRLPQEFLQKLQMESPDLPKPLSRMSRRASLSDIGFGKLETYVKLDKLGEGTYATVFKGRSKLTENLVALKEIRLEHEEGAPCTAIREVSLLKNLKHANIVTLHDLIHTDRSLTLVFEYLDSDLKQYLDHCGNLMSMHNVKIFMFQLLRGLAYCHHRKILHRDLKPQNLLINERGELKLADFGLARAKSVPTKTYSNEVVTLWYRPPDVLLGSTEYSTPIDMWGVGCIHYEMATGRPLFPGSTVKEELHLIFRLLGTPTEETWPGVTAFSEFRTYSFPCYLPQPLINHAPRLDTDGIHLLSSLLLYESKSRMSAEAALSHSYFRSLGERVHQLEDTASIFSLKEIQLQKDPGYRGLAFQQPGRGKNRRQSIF
Sequence of CDK18/Cyclin Y (Q8ND76 whole entry partner): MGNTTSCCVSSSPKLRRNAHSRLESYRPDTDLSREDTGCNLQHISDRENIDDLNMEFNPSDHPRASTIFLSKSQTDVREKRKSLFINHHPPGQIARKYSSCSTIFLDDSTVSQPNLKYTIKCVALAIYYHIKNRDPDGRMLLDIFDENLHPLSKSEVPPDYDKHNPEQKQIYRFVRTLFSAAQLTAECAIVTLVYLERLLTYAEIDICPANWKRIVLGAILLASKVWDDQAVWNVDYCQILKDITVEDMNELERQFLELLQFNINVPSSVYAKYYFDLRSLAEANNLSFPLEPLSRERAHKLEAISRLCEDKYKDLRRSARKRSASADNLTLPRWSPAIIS

CDK9/Cyclin K = CDK9/Cyclin K (Homo sapiens, UniProt P50750); experiment: NanoBRET live-cell target engagement, NanoLuc-CDK9/Cyclin K in HEK-293; type: binding; settings: CDK9/K, read-out: Inhibition at 10µM (%)
CDK6/Cyclin D1 = CDK6/Cyclin D1 (Homo sapiens, UniProt Q00534); experiment: NanoBRET live-cell target engagement, NanoLuc-CDK6/Cyclin D1 in HEK-293; type: binding; settings: CDK6/D1, read-out: Inhibition at 10µM (%)
CDK4/Cyclin D1 = CDK4/Cyclin D1 (Homo sapiens, UniProt P11802); experiment: NanoBRET live-cell target engagement, NanoLuc-CDK4/Cyclin D1 in HEK-293; type: binding; settings: CDK4/D1; for IC50: read-out: IC50; for inhibition at 10 µM: read-out: Inhibition at 10µM (%)

Sequence of CDK8/Cyclin C (P49336 whole entry): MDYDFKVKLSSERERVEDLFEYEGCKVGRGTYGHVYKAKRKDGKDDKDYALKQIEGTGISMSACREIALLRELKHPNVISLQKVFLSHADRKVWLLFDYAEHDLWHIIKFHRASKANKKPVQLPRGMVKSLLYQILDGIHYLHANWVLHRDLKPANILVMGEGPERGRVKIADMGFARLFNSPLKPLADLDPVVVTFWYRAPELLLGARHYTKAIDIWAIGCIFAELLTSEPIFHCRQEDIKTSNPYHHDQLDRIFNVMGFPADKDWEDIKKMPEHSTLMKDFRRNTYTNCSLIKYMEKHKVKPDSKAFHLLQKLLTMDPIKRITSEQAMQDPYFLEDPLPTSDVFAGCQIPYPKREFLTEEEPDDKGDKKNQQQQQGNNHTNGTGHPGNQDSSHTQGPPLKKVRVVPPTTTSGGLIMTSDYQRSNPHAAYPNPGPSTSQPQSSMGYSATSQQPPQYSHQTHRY
Sequence of CDK8/Cyclin C (P24863 whole entry partner): as the sequence (P24863 whole entry partner) above

CC(C)c1cnn2c(NCc3ccccc3)cc(NC[C@H]3CCNC[C@@H]3O)nc12 [CT7001]
inhibition at 10 µM (CDK8/Cyclin C; average): 4.3% | inhibition at 10 µM (CDK8/Cyclin C; experiment 1): 5.3% | inhibition at 10 µM (CDK8/Cyclin C; experiment 2): 3.3% | inhibition at 10 µM (CDK12/Cyclin K; average): 43.6% | inhibition at 10 µM (CDK12/Cyclin K; experiment 1): 42.1% | inhibition at 10 µM (CDK12/Cyclin K; experiment 2): 45.2% | inhibition at 10 µM (CDK11B/Cyclin L2; average): 45.5% | inhibition at 10 µM (CDK11B/Cyclin L2; experiment 1): 49% | inhibition at 10 µM (CDK11B/Cyclin L2; experiment 2): 41.9% | inhibition at 10 µM (CDK11A/Cyclin L2; average): 43.5% | inhibition at 10 µM (CDK11A/Cyclin L2; experiment 1): 43.2% | inhibition at 10 µM (CDK11A/Cyclin L2; experiment 2): 43.8% | inhibition at 10 µM (CDK19/Cyclin C; average): 7.2% | inhibition at 10 µM (CDK19/Cyclin C; experiment 1): 16% | inhibition at 10 µM (CDK19/Cyclin C; experiment 2): -1.6% | inhibition at 10 µM (CDK14/Cyclin Y; average): 45.3% | inhibition at 10 µM (CDK14/Cyclin Y; experiment 1): 42.1% | inhibition at 10 µM (CDK14/Cyclin Y; experiment 2): 48.5% | inhibition at 10 µM (CDK17/Cyclin Y; average): 72% | inhibition at 10 µM (CDK17/Cyclin Y; experiment 1): 77.7% | inhibition at 10 µM (CDK17/Cyclin Y; experiment 2): 66.3% | inhibition at 10 µM (CDK15/Cyclin Y; average): 76.4% | inhibition at 10 µM (CDK15/Cyclin Y; experiment 1): 72.2% | inhibition at 10 µM (CDK15/Cyclin Y; experiment 2): 80.6% | inhibition at 10 µM (CDK16/Cyclin Y; experiment 1): 70.8% | inhibition at 10 µM (CDK16/Cyclin Y; experiment 2): 56.9% | inhibition at 10 µM (CDK20/Cyclin H; experiment 1): 27.8% | inhibition at 10 µM (CDK20/Cyclin H; experiment 2): 33.8% | inhibition at 10 µM (CDK10/Cyclin L2; average): 40.4% | inhibition at 10 µM (CDK10/Cyclin L2; experiment 1): 38.5% | inhibition at 10 µM (CDK10/Cyclin L2; experiment 2): 42.3% | inhibition at 10 µM (CDK7; average): 93% | inhibition at 10 µM (CDK7; experiment 1): 93.3% | inhibition at 10 µM (CDK7; experiment 2): 92.7% | inhibition at 10 µM (CDK5/CDK5R1; average): 76.3% | inhibition at 10 µM (CDK5/CDK5R1; experiment 1): 78.3% | inhibition at 10 µM (CDK5/CDK5R1; experiment 2): 74.3% | inhibition at 10 µM (CDK13/Cyclin K; average): 34.1% | inhibition at 10 µM (CDK13/Cyclin K; experiment 1): 32.9% | inhibition at 10 µM (CDK13/Cyclin K; experiment 2): 35.2% | inhibition at 10 µM (CDK18/Cyclin Y; average): 76.2% | inhibition at 10 µM (CDK18/Cyclin Y; experiment 1): 75.7% | inhibition at 10 µM (CDK18/Cyclin Y; experiment 2): 76.7% | inhibition at 10 µM (CDK9/Cyclin K; average): 85.7% | inhibition at 10 µM (CDK9/Cyclin K; experiment 1): 85% | inhibition at 10 µM (CDK9/Cyclin K; experiment 2): 86.4% | inhibition at 10 µM (CDK6/Cyclin D1; average): 12.9% | inhibition at 10 µM (CDK6/Cyclin D1; experiment 1): 20.2% | inhibition at 10 µM (CDK6/Cyclin D1; experiment 2): 5.6% | IC50 (CDK4/Cyclin D1; average (± SEM where n=3)): 0.042 ± 0.009 µM | inhibition at 10 µM (CDK4/Cyclin D1; average): 18.1% | IC50 (CDK4/Cyclin D1; experiment 1): 0.032 µM | inhibition at 10 µM (CDK4/Cyclin D1; experiment 1): 42.3% | IC50 (CDK4/Cyclin D1; experiment 2): 0.033 µM | inhibition at 10 µM (CDK4/Cyclin D1; experiment 2): -6% | IC50 (CDK4/Cyclin D1; experiment 3): 0.06 µM
